Assays:
[1] = test system: B cells collected from mice; assay: BAFF-induced differentiation into mature B cells (IgM/IgD flow cytometry); format: cell-based, mouse; settings: 100 ng/mL BAFF, 10 days, 100 μM mangiferin, 20 μM 1,3,5,6-tetrahydroxyxanthone, 10 μM others; for population IgM positive and IgD positive (mature B cells): control 0, BAFF only 45.6; for population IgM positive and IgD negative (immature B cells): control 0.529, BAFF only 42.3; for population IgM negative and IgD negative (pre-B cells): control 99.5, BAFF only 11.7
Method: B cells collected from mice were cultured in RPMI 1640 medium for 1 day. Then, 100 μM mangiferin, 10 μM mangiferin 8a, 10 μM norathyriol, 20 μM 1,3,5,6-tetrahydroxyxanthone, 10 μM xanthohydrol, 10 μM α-mangostin, 10 μM of γ-mangostin were added to B cell, and after 1 day of culture, 100 ng/mL of BAFF was added, followed by 10 days of culture. After 10 days of culture, cells were stained with anti-IgM and anti-IgD antibodies, markers of B cells, and the expression of IgM and IgD was measured using BD LSRFortessa. Note that IgM negative and IgD negative indicates pre-B cells, IgM positive and IgD negative indicates immature B cells, and IgM positive and IgD positive indicates mature B cells.

[2] = test system: B cells collected from mice; assay: BAFF-induced differentiation into plasma cells (CD138 flow cytometry); format: cell-based, mouse; settings: 100 ng/mL BAFF, 10 days; 100 μM mangiferin, 20 μM 1,3,5,6-tetrahydroxyxanthone, 10 μM others; vs BAFF-added group
Method: B cells collected from mice were cultured in RPMI 1640 medium for 1 day. Then, 100 μM mangiferin, 10 μM mangiferin 8a, 10 μM norathyriol, 20 μM 1,3,5,6-tetrahydroxyxanthone, 10 μM xanthohydrol, 10 μM α-mangostin, 10 μM of γ-mangostin were added to B cell, and after 1 day of culture, 100 ng/mL of BAFF was added, followed by 10 days of culture. After 10 days of culture, cells were stained with anti-CD138 antibody, a marker of plasma cells, and CD138 expression was measured using BD LSRFortessa.
In all figures, the horizontal axis represents the expression level of CD138 and the vertical axis represents the number of cells.

NIK = molecular target: T1, NIK (Mus musculus, UniProt Q9WUL6); assay: BAFF-induced NIK activation in B cells (Western blotting, phospho-NIK); format: cell-based; settings: for phospho-NIK band (immunoblotting): 100 ng/mL BAFF 1 h after 23 h compound, 100 μM mangiferin, 20 μM 1,3,5,6-tetrahydroxyxanthone, 10 μM others; for inhibition of NIK activity compared with mangiferin: general statement in the description, referring to the examples
T1 construct: Proteins were extracted with cell lysate and used as samples; endogenous in cells; host or cells: primary splenic B cells from 6-week-old male Balb/c mice
Method: (§1) Spleens were harvested from 6-week-old male Balb/c mice and B cells were isolated. After isolation, the cells were seeded in […] dish and cultured in RPMI 1640 medium for 1 day and used as control. In addition, B cells were seeded into 100 mm^2 dish, and after 1 day of culture, 100 ng/mL BAFF was added and cultured for 1 h. Furthermore, B cells were seeded in […] dish, and after 1 day of culture, 100 μM mangiferin, 10 μM mangiferin 8a, 10 μM norathyriol, 20 μM 1,3,5,6-tetrahydroxyxanthone, 10 μM xanthohydrol, 10 μM of α-mangostin, and 10 μM of γ-mangostin were added to B cells, and after 23 h, 100 ng/mL BAFF was added to each, and the cells were incubated for 1 h. All were incubated at 37° C. and 5% CO2.
(§2) Proteins were extracted with cell lysate and used as samples. Each sample was transferred to a PVDF membrane after SDSPAGE and assayed with anti-phospho-NIK, anti-NIK, anti-NF-κB p52, anti-NF-κB p65 and anti-Lamin antibodies.
(§3) The antibody species is indicated in the vertical direction. Specifically, in the case of anti-phospho-NIK antibody (described as “Phospho-NIK”), anti-NIK antibody (described as “NIK”), anti-NF-κB p52 antibody (described as “NF-κB p52 nuclear”), anti-NF-κB p65 antibody (described as “NF-κB p65 nuclear”) and anti-Lamin antibody (described as “Lamin”).

NF-κB p52 = assay: BAFF-stimulated B cells, nuclear NF-κB p52 (Western blotting); format: cell-based, mouse; settings: vs 100 ng/mL BAFF; 100 μM mangiferin, 20 μM 1,3,5,6-tetrahydroxyxanthone, 10 μM others
Method: as §1, §2, §3

IgE antibody = assay: Serum IgE antibody ELISA, atopic dermatitis mice; format: in vivo, mouse; settings: day 7, topical application, control 1214, vehicle (MC903) 2588
Method: (§4) MC903 at 2 nM was applied to the right auricle of a 6-week-old male Balb/c (Japan SLC Inc.). Starting 8 h later, 5% norathyriol aqueous solution (1 mL of ethanol containing […] of norathyriol), betamethasone ointment, and delgocitinib ointment were applied to the auricle for 7 days. The measurement of auricular skin swelling was calculated by calipers. The day on which the first application of the compound was made was defined as day 0. Betamethasone and delgocitinib are currently in clinical use in atopic dermatitis and were used as control drugs in this example.
Serum was collected from mice on day 7 in Example 1, and IgE antibody production was measured by enzyme-linked immunosorbent assay (ELISA). This assay was performed using a mouse IgE antibody ELISA kit (R&D).

TSLP = assay: Auricular tissue TSLP ELISA, atopic dermatitis mice; format: in vivo, mouse; settings: day 7, topical application, control 317, vehicle 1533
Method: as §4
The mouse TSLP ELISA kit (R&D) was used for this measurement.

IL-4 = assay: Auricular tissue IL-4 ELISA, atopic dermatitis mice; format: in vivo, mouse; settings: day 7, topical application, control 56, vehicle 152
Method: as §4
The mouse IL-4 ELISA kit (R&D) was used for this measurement.

IL-5 = assay: Auricular tissue IL-5 ELISA, atopic dermatitis mice; format: in vivo, mouse; settings: day 7, topical application, control 15, vehicle 32
Method: as §4
The mouse IL-5 ELISA kit (R&D) was used for this measurement.

T1 sequence (Q9WUL6 whole entry): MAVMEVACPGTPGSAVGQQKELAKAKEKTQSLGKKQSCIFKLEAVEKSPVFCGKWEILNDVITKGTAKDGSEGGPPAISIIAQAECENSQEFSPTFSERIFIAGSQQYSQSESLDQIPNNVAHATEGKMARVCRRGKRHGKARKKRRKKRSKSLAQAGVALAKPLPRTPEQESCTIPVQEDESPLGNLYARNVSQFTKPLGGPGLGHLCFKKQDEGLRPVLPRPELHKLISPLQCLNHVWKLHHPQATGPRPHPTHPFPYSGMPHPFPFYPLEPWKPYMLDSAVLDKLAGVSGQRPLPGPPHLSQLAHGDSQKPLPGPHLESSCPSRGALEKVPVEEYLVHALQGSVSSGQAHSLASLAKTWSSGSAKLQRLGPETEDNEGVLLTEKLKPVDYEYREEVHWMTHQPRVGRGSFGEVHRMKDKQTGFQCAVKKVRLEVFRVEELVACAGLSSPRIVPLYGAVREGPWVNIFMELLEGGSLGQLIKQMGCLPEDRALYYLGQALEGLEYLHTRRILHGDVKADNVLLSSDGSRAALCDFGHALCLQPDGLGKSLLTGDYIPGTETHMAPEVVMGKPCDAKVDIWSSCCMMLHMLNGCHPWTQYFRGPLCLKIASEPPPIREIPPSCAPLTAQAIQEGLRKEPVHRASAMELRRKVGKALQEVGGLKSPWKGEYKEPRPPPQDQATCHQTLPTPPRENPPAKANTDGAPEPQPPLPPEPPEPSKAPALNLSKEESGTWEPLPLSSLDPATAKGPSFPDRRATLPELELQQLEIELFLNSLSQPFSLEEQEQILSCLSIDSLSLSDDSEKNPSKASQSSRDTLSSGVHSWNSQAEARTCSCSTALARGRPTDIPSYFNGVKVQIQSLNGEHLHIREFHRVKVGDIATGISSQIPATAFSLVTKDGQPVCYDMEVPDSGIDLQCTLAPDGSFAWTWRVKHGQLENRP

| SMILES | population IgM positive and IgD positive (mature B cells) [1] [%] | population IgM positive and IgD negative (immature B cells) [1] [%] | population IgM negative and IgD negative (pre-B cells) [1] [%] | CD138 expression [2] | phospho-NIK band (immunoblotting) (NIK) | inhibition of NIK activity compared with mangiferin (NIK) | nuclear NF-κB p52 band (immunoblotting) (NF-κB p52) | amount of IgE antibody (IgE antibody) [ng/mL] | TSLP secretion (TSLP) [pg/mL] | IL-4 secretion (IL-4) [pg/mL] | IL-5 secretion (IL-5) [pg/mL] |
| --- | --- | --- | --- | --- | --- | --- | --- | --- | --- | --- | --- |
| O=c1c2ccc(O)c(O)c2oc2cc(O)cc(O)c12 [1,3,5,6-tetrahydroxyxanthone] | 0 | 2.92 | 96.5 | significantly decreased CD138 expression | fainter | more inhibition of NIK activity than mangiferin | fainter |  |  |  |  |
| OC1c2ccccc2Oc2ccccc21 [xanthohydrol] | 0 | 3.64 | 96.3 | significantly decreased CD138 expression | fainter | more inhibition of NIK activity than mangiferin | fainter |  |  |  |  |
| CC(C)=CCc1c(O)cc2oc3cc(O)c(O)c(CC=C(C)C)c3c(=O)c2c1O [γ-mangostin] | 0.561 | 19.7 | 79.7 | significantly decreased CD138 expression | fainter | more inhibition of NIK activity than mangiferin | fainter |  |  |  |  |
| C[C@H]1CN(C(=O)CC#N)[C@]12CCN(c1ncnc3[nH]ccc13)C2 [delgocitinib] |  |  |  |  |  |  |  | 1812 | 971 | 159 | 33 |
| COc1c(O)cc2oc3cc(O)c(CC=C(C)C)c(O)c3c(=O)c2c1CC=C(C)C [α-mangostin] | 0.363 | 21.2 | 78.1 | significantly decreased CD138 expression | fainter | more inhibition of NIK activity than mangiferin | fainter |  |  |  |  |
| O=c1c2cc(O)c(O)cc2oc2cc(O)c([C@@H]3O[C@H](CO)[C@@H](O)[C@H](O)[C@H]3O)c(O)c12 [mangiferin] | 0 | 3.24 | 95.8 | significantly decreased CD138 expression | fainter |  | fainter |  |  |  |  |
| C[C@H]1C[C@H]2[C@@H]3CCC4=CC(=O)C=C[C@]4(C)[C@@]3(F)[C@@H](O)C[C@]2(C)[C@@]1(O)C(=O)CO [betamethasone] |  |  |  |  |  |  |  | 1175 | 651 | 45 | 8 |
